# According to BindingDB's records for doi:10.7270/Q2JQ0ZF7 (Nmmlsc, 2009):
# Target: T1, GTPase KRas [1-37] (Homo sapiens, UniProt G3V5T7)
# T1 construct: 1-37
# Assay: blockade of Bodipy-GTP loading onto wild-type Ras – biochemical, oxadiazole analogs, multiplex bead flow cytometry, SAR follow-up (AID 2053)
# Conditions: not given
# T1 sequence (G3V5T7 whole entry): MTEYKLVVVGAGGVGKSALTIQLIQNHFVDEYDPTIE
row,SMILES,EC50 [µM]
1,"COc1ccc(-c2noc(CCCCC(=O)N3CCN(c4cc(C)ccc4C)CC3)n2)cc1 [1-[4-(2,5-dimethylphenyl)-1-piperazinyl]-5-[3-(4-methoxyphenyl)-1,2,4-oxadiazol-5-yl]-1-pentanone]",> 30
2,"Cc1ccc(C)c(N2CCN(C(=O)CCc3nc(-c4ccccc4Cl)no3)CC2)c1 [3-[3-(2-chlorophenyl)-1,2,4-oxadiazol-5-yl]-1-[4-(2,5-dimethylphenyl)-1-piperazinyl]-1-propanone]",> 30
3,"COc1ccc(-c2noc(CC(=O)N3CCN(c4cc(C)ccc4C)CC3)n2)cc1 [1-[4-(2,5-dimethylphenyl)piperazin-1-yl]-2-[3-(4-methoxyphenyl)-1,2,4-oxadiazol-5-yl]ethanone]",> 30
4,Cc1ccc(C)c(N2CCN(C(=O)CCc3nc(-c4cccc(Cl)c4)no3)CC2)c1 [UNM-0000306086],> 30
5,Cc1ccc(C)c(N2CCN(C(=O)CCc3nc(-c4ccc(Cl)cc4)no3)CC2)c1 [UNM-0000306083],> 30
6,COc1ccc(-c2noc(CCC(=O)N3CCC(c4cc(C)ccc4C)CC3)n2)cc1 [KUC103432N],> 30
7,COc1ccc(-c2noc(CCC(=O)N3CCN(c4ccccc4C)CC3)n2)cc1,> 30
8,COc1ccc(-c2ccc(CCC(=O)N3CCN(c4cc(C)ccc4C)CC3)o2)cc1 [KUC103447N],> 30
9,"COc1ccc(-c2ccc(CCC(=O)N3CCN(c4cc(C)ccc4C)CC3)[nH]2)cc1 [1-[4-(2,5-dimethylphenyl)piperazin-1-yl]-3-[5-(4-methoxyphenyl)-1H-pyrrol-2-yl]propan-1-one]",> 30
10,COc1ccc(-c2noc(CCCC(=O)N3CCN(c4cc(C)ccc4C)CC3)n2)cc1 [KUC103353N],> 30
11,Cc1ccc(C)c(N2CCN(C(=O)CCc3nc(-c4ccccc4C)no3)CC2)c1,> 30
12,"COc1ccc(-c2noc(CCC(=O)N3CCN(c4ccccc4OC)CC3)n2)cc1 [3-[3-(4-methoxyphenyl)-1,2,4-oxadiazol-5-yl]-1-[4-(2-methoxyphenyl)-1-piperazinyl]-1-propanone]",> 30
13,COc1ccc(-c2noc(CCC(=O)N3CCN(c4cccc(C)c4)CC3)n2)cc1 [UNM-0000306125],> 30
14,COc1ccc(-c2noc(CCC(=O)N3CCN(c4cccc(Cl)c4)CC3)n2)cc1,> 30
15,COc1ccc(-c2noc(CCC(=O)N3CCN(c4ccc(F)cc4)CC3)n2)cc1 [KUC103398N],> 30
16,"Cc1ccc(C)c(N2CCN(C(=O)CCc3nc(-c4ccc(C(F)(F)F)cc4)no3)CC2)c1 [1-[4-(2,5-dimethylphenyl)-1-piperazinyl]-3-[3-[4-(trifluoromethyl)phenyl]-1,2,4-oxadiazol-5-yl]-1-propanone]",> 30
17,"Cc1cccc(-c2noc(CCC(=O)N3CCN(c4cc(C)ccc4C)CC3)n2)c1 [1-[4-(2,5-dimethylphenyl)piperazin-1-yl]-3-[3-(3-methylphenyl)-1,2,4-oxadiazol-5-yl]propan-1-one]",> 30
18,"COc1ccc(-c2coc(CCC(=O)N3CCN(c4cc(C)ccc4C)CC3)n2)cc1 [1-[4-(2,5-dimethylphenyl)piperazin-1-yl]-3-[4-(4-methoxyphenyl)-1,3-oxazol-2-yl]propan-1-one]",> 30
19,COc1ccc(-c2cc(CCC(=O)N3CCN(c4cc(C)ccc4C)CC3)[nH]n2)cc1 [UNM-0000306150],> 30
20,COc1ccc(-c2ccc(CCC(=O)N3CCN(c4cc(C)ccc4C)CC3)s2)cc1,> 30
21,COc1ccc(-c2noc(CCC(=O)N3CCN(c4ccc(Cl)cc4)CC3)n2)cc1 [UNM-0000306121],> 30
22,Cc1ccc(C)c(N2CCN(C(=O)CCc3nc(-c4ccc(N(C)C)cc4)no3)CC2)c1 [KUC103409N],> 30

row,SMILES,EC50 [µM]
1,"COc1ccc(-c2noc(CCC(=O)N3CCN(c4ccc(Br)cc4)CC3)n2)cc1 [1-[4-(4-bromophenyl)piperazin-1-yl]-3-[3-(4-methoxyphenyl)-1,2,4-oxadiazol-5-yl]propan-1-one]",> 30
2,COc1ccc(-c2noc(CCC(=O)N3CCN(c4cccc(OC)c4)CC3)n2)cc1 [KUC103349N],> 30
3,"Cc1ccc(-c2noc(CCC(=O)N3CCN(c4cc(C)ccc4C)CC3)n2)cc1 [1-[4-(2,5-dimethylphenyl)-1-piperazinyl]-3-[3-(4-methylphenyl)-1,2,4-oxadiazol-5-yl]-1-propanone]",> 30
4,"COc1ccc(-c2noc(CCC(=O)N3CCN(c4cccc(F)c4)CC3)n2)cc1 [1-[4-(3-fluorophenyl)piperazin-1-yl]-3-[3-(4-methoxyphenyl)-1,2,4-oxadiazol-5-yl]propan-1-one]",> 30
5,"COc1ccc(-c2noc(CCC(=O)N3CCN(c4ccc(C(F)(F)F)cc4)CC3)n2)cc1 [3-[3-(4-methoxyphenyl)-1,2,4-oxadiazol-5-yl]-1-[4-[4-(trifluoromethyl)phenyl]piperazin-1-yl]propan-1-one]",> 30
6,Cc1ccc(C)c(N2CCN(C(=O)CCc3nc(-c4ccc(F)cc4)no3)CC2)c1 [KUC103364N],> 30
7,COc1ccc(-c2noc(CCC(=O)N3CCN(c4ccccc4Br)CC3)n2)cc1 [KUC103370N],> 30
8,Cc1ccc(C)c(N2CCN(C(=O)CCc3nc(-c4ccccc4C(F)(F)F)no3)CC2)c1,> 30
9,COc1ccc(-c2cccc(CCC(=O)N3CCN(c4cc(C)ccc4C)CC3)c2)cc1 [UNM-0000306127],> 30
10,"COc1ccc(-c2noc(CCC(=O)N3CCN(c4ccccc4)CC3)n2)cc1 [3-[3-(4-methoxyphenyl)-1,2,4-oxadiazol-5-yl]-1-(4-phenylpiperazin-1-yl)propan-1-one]",> 30
11,Cc1ccc(C)c(N2CCN(C(=O)CCc3nc(-c4cccc(Br)c4)no3)CC2)c1 [KUC103367N],> 30
12,"COc1ccc(-c2noc(CCC(=O)N3CCN(c4cccc(C)c4C)CC3)n2)cc1 [1-[4-(2,3-dimethylphenyl)-1-piperazinyl]-3-[3-(4-methoxyphenyl)-1,2,4-oxadiazol-5-yl]-1-propanone]",> 30
13,"COc1ccc(-c2cc(CCC(=O)N3CCN(c4cc(C)ccc4C)CC3)on2)cc1 [1-[4-(2,5-dimethylphenyl)piperazin-1-yl]-3-[3-(4-methoxyphenyl)-1,2-oxazol-5-yl]propan-1-one]",> 30
14,Cc1ccc(C)c(N2CCN(C(=O)CCc3nc(-c4cccc(C(F)(F)F)c4)no3)CC2)c1 [KUC103380N],> 30
15,Cc1ccc(C)c(N2CCN(C(=O)CCc3nc(-c4cccc(F)c4)no3)CC2)c1 [KUC103366N],> 30
16,COc1ccc(-c2noc(CCC(=O)N3CCN(c4ccccc4C(F)(F)F)CC3)n2)cc1 [UNM-0000306082],> 30
17,"COc1ccc(-c2noc(CCC(=O)N3CCN(c4ccc(C)cc4)CC3)n2)cc1 [3-[3-(4-methoxyphenyl)-1,2,4-oxadiazol-5-yl]-1-[4-(4-methylphenyl)piperazin-1-yl]propan-1-one]",> 30
18,"COc1ccc(-c2noc(CCC(=O)N3CCN(c4cccc(C(F)(F)F)c4)CC3)n2)cc1 [1-{3-[3-(4-methoxyphenyl)-1,2,4-oxadiazol-5-yl]propanoyl}-4-[3-(trifluoromethyl)phenyl]piperazine]",> 30
19,COc1ccccc1-c1noc(CCC(=O)N2CCN(c3cc(C)ccc3C)CC2)n1 [UNM-0000306071],> 30
20,"COc1ccc(-c2noc(CCC(=O)N3CCN(c4ccc(OC)cc4)CC3)n2)cc1 [3-[3-(4-methoxyphenyl)-1,2,4-oxadiazol-5-yl]-1-[4-(4-methoxyphenyl)piperazin-1-yl]propan-1-one]",> 30
21,Cc1ccc(C)c(N2CCN(C(=O)CCc3nc(-c4ccccc4F)no3)CC2)c1 [KUC103401N],> 30

# Same assay, conditions: inactive by the depositor's call
row,SMILES,EC50 [µM]
1,"COc1ccc(-c2noc(CCC(=O)N3CCN(c4cc(C)ccc4C)CC3)n2)cc1 [1-[4-(2,5-dimethylphenyl)-1-piperazinyl]-3-[3-(4-methoxyphenyl)-1,2,4-oxadiazol-5-yl]-1-propanone]",1.71
2,Cc1ccc(C)c(N2CCN(C(=O)CCc3nc(-c4ccc(Br)cc4)no3)CC2)c1 [UNM-0000306072],1.83
3,"COc1ccc(-c2noc(CCC(=O)N3CCN(c4ccccc4Cl)CC3)n2)cc1 [1-[4-(2-chlorophenyl)piperazin-1-yl]-3-[3-(4-methoxyphenyl)-1,2,4-oxadiazol-5-yl]propan-1-one]",1.87
4,"COc1ccc(-c2noc(CCC(=O)N3CCN(c4ccccc4F)CC3)n2)cc1 [1-[4-(2-fluorophenyl)piperazin-1-yl]-3-[3-(4-methoxyphenyl)-1,2,4-oxadiazol-5-yl]propan-1-one]",0.05
5,Cc1ccc(C)c(N2CCN(C(=O)CCc3nc(-c4ccccc4)no3)CC2)c1 [UNM-0000306070],0.869
6,"COc1ccc(-c2noc(CCC(=O)N3CCN(c4cccc(Br)c4)CC3)n2)cc1 [1-[4-(3-bromophenyl)-1-piperazinyl]-3-[3-(4-methoxyphenyl)-1,2,4-oxadiazol-5-yl]-1-propanone]",0.017
7,"Cc1ccc(C)c(N2CCN(C(=O)CCc3nc(-c4ccccc4Br)no3)CC2)c1 [3-[3-(2-bromophenyl)-1,2,4-oxadiazol-5-yl]-1-[4-(2,5-dimethylphenyl)-1-piperazinyl]-1-propanone]",0.033
8,COc1cccc(-c2noc(CCC(=O)N3CCN(c4cc(C)ccc4C)CC3)n2)c1,1.49
